Our source for the TGI values is PubChem BioAssay (NCI).

Some test systems named below: SR leukemia; RPMI-8226 leukemia; A549 NSCLC; SK-MEL-5 melanoma; U251 CNS; EKVX NSCLC; HCT-116 colon; SNB-19 CNS; TK-10 renal; HCC-2998 colon; UACC-62 melanoma; NCI-H23 lung; A498 renal; SNB-75 CNS; SK-MEL-2 melanoma; HOP-62 NSCLC; PC-3 prostate; UO-31 renal; HCT-15 colon; T-47D breast.
Common to all, as to assay: NCI tumour cell line growth inhibition, 48 h

SMILES strings stand for the structures.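 Step 1: Grow cells in 96-well plates. Step 2: Expose to compound for 48 hours at 5 concentrations. Step 3: Interpolate endpoints linearly; if unreached, use highest concentration. TGI is the concentration that stops growth completely.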 Some results are limits rather than exact numbers.

With `CC12CC(=O)Nc3ccccc3N1C(c1ccccc1)=NO2` (configuration not stated), the TGI with SR leukemia, in the experiment with RPMI-8226 leukemia, in the experiment on A549 NSCLC, in the experiment with SK-MEL-5 melanoma, with U251 CNS and in the experiment on EKVX NSCLC was over 100 µM in each case. Besides, the TGI in the experiment with HCT-116 colon, in the experiment on SNB-19 CNS, in the experiment with TK-10 renal, with HCC-2998 colon, in the experiment with UACC-62 melanoma and in the experiment on NCI-H23 lung was over 100 µM each time. Also, the TGI in the experiment on A498 renal, in the experiment on SNB-75 CNS, in the experiment with SK-MEL-2 melanoma, in the experiment with HOP-62 NSCLC, in the experiment with PC-3 prostate and with UO-31 renal was over 100 µM throughout. The molecule also displayed a TGI in the experiment with HCT-15 colon of over 100 µM.

On to `CCOC(=O)c1sc2c(c1OC(=O)c1cc(OC)c(OC)c(OC)c1)c(=O)n(-c1ccccc1)c(=S)n2-c1ccccc1`, for which the TGI in the experiment with RPMI-8226 leukemia, in the experiment on A549 NSCLC, in the experiment on SK-MEL-5 melanoma, with U251 CNS, with EKVX NSCLC and in the experiment with HCT-116 colon was over 100 µM throughout. Moreover, the TGI in the experiment with SNB-19 CNS, in the experiment on TK-10 renal, with HCC-2998 colon, in the experiment on UACC-62 melanoma, in the experiment with T-47D breast and in the experiment with NCI-H23 lung was over 100 µM throughout. Further, the TGI with A498 renal, with SNB-75 CNS, with HOP-62 NSCLC, in the experiment on PC-3 prostate and in the experiment on HCT-15 colon was over 100 µM throughout.

As for `CCOP(=O)(OCC)/C(C#N)=C/c1ccccn1`, the TGI in the experiment on SR leukemia, in the experiment on RPMI-8226 leukemia, in the experiment with A549 NSCLC, in the experiment with SK-MEL-5 melanoma, with U251 CNS and in the experiment with EKVX NSCLC was over 100 µM each time. Further, the TGI with HCT-116 colon, with SNB-19 CNS, in the experiment with TK-10 renal, in the experiment with HCC-2998 colon, in the experiment with UACC-62 melanoma and with T-47D breast was over 100 µM each time. The TGI in the experiment with NCI-H23 lung, with A498 renal, with SNB-75 CNS, in the experiment on HOP-62 NSCLC and in the experiment with HCT-15 colon was over 100 µM in each case.

On to `N#CCCN(CCC#N)c1ccc(/C=C2\N=C(c3ccccc3)N(c3ccc(C(=O)O)cc3)C2=O)cc1`, for which the TGI with RPMI-8226 leukemia, in the experiment with A549 NSCLC, in the experiment with SK-MEL-5 melanoma, in the experiment with U251 CNS, with EKVX NSCLC and in the experiment on HCT-116 colon was over 100 µM in each case. In addition, the TGI is over 100 µM in the experiment on SNB-19 CNS; over 100 µM in the experiment on TK-10 renal; 67.5 µM in the experiment on UACC-62 melanoma; over 100 µM in the experiment with T-47D breast; over 100 µM in the experiment with A498 renal; over 100 µM in the experiment on SK-MEL-2 melanoma. Further, the TGI with HOP-62 NSCLC, in the experiment on PC-3 prostate, in the experiment with UO-31 renal and with HCT-15 colon was over 100 µM in each case.

For the molecule `COc1ccc2oc(S(=O)(=O)N3CC(CCl)c4ccc(N)cc43)cc2c1` (configuration not stated), the TGI in the experiment on RPMI-8226 leukemia was over 100 µM; in the experiment with A549 NSCLC, over 100 µM; with SK-MEL-5 melanoma it was 4.95 µM; in the experiment with U251 CNS it was over 100 µM; in the experiment on EKVX NSCLC, over 100 µM; in the experiment on HCT-116 colon it was over 8.26 µM. In addition, the TGI in the experiment on SNB-19 CNS was over 100 µM; in the experiment on TK-10 renal, over 100 µM; in the experiment on HCC-2998 colon it was 3.05 µM; with UACC-62 melanoma, over 100 µM; in the experiment with T-47D breast, over 100 µM; in the experiment with NCI-H23 lung it was over 100 µM. Also, the TGI was over 52.1 µM in the experiment with A498 renal; over 100 µM in the experiment on SNB-75 CNS; over 100 µM in the experiment with SK-MEL-2 melanoma; over 100 µM with HOP-62 NSCLC; over 100 µM in the experiment on PC-3 prostate; over 100 µM in the experiment on UO-31 renal. In the experiment on HCT-15 colon, this molecule registered a TGI of over 23.9 µM.

For `CCOC(=O)c1cn2c(n1)sc1cc(OC)ccc12`, the TGI in the experiment on RPMI-8226 leukemia is over 100 µM; with A549 NSCLC, over 100 µM; in the experiment with SK-MEL-5 melanoma, over 44.3 µM; in the experiment with U251 CNS, 21.9 µM; with EKVX NSCLC it was over 100 µM; in the experiment on HCT-116 colon, over 43.9 µM. The TGI with SNB-19 CNS, with TK-10 renal, in the experiment on HCC-2998 colon, in the experiment on UACC-62 melanoma, in the experiment on NCI-H23 lung and with A498 renal was over 100 µM throughout. For the same molecule, the TGI was over 100 µM with SNB-75 CNS; over 100 µM with SK-MEL-2 melanoma; over 100 µM with HOP-62 NSCLC; over 100 µM with PC-3 prostate; over 100 µM in the experiment on UO-31 renal; over 55.3 µM in the experiment with HCT-15 colon.

Consider `COc1cc(C2c3cc4c(cc3OC(NNS(=O)(=O)c3ccc(C)cc3)C2C)OCO4)cc(OC)c1OC` (configuration not stated), for which the TGI in the experiment on RPMI-8226 leukemia was found to be 18.4 µM; in the experiment with A549 NSCLC, 34.4 µM; in the experiment on SK-MEL-5 melanoma, 25 µM; in the experiment with U251 CNS, 13.4 µM; in the experiment with EKVX NSCLC it was 18.3 µM; in the experiment on HCT-116 colon, 12.1 µM. For the same molecule, the TGI with SNB-19 CNS was over 49.1 µM; in the experiment with TK-10 renal it was over 79 µM; with HCC-2998 colon, over 23.4 µM; with UACC-62 melanoma, 20.3 µM; in the experiment with T-47D breast it was over 100 µM; with NCI-H23 lung, over 74.6 µM. The TGI with A498 renal is 5.69 µM; with SNB-75 CNS, 17.1 µM; with SK-MEL-2 melanoma it was 36.9 µM; in the experiment with HOP-62 NSCLC, 4.68 µM; in the experiment with PC-3 prostate, over 72.5 µM; with UO-31 renal, over 100 µM. Also, in the experiment with HCT-15 colon, the TGI is over 22.8 µM.

For the molecule `O=C(O)c1nc2ccc(C(F)(F)F)cc2nc1Nc1ccc(Cl)c(Cl)c1`, the TGI in the experiment with SR leukemia came to 14 µM; in the experiment with SK-MEL-5 melanoma, 23.7 µM; in the experiment with U251 CNS it was 14.7 µM; in the experiment with EKVX NSCLC, 22.8 µM; with HCT-116 colon, 17.1 µM; in the experiment with SNB-19 CNS, 10.9 µM. Further, the TGI in the experiment on TK-10 renal was over 100 µM; with HCC-2998 colon it was 17.6 µM; in the experiment on UACC-62 melanoma, 18 µM; with NCI-H23 lung, 19 µM; in the experiment on A498 renal, 27.4 µM; with SNB-75 CNS, 29 µM. In addition, the TGI came out at 11.2 µM in the experiment with SK-MEL-2 melanoma; 20.6 µM in the experiment with HOP-62 NSCLC; 15.8 µM in the experiment with PC-3 prostate; 18.2 µM with UO-31 renal; 22.6 µM in the experiment on HCT-15 colon.
